From PubChem BioAssay AID1845213 (Molecular Pharmacology Branch, DTP, NCI, 2023)
Active and inactive are the calls of the source. Rule for the calls: active = viability on the fitted dose curve at most 10% of control; inactive = the rest.

Tested on: NCI-H841 complex tumor spheroid viability
Experiment: Anticancer human tumor NCI-H841 cell line growth inhibition;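 for IC50: spheroids exposed to compounds for 7 days before readout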;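 for viability, T/C: spheroids exposed to compounds for 7 days before readout; 100% = DMSO vehicle control wells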
Details: for IC50: curve of first compound; for viability, T/C: stronger effect = lower value
How it was run: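 Complex spheroids of malignant cells with endothelial cells and mesenchymal stem cells; agents alone or combined, from near clinical Cmax (or 10 microM if unknown) down in half-log steps, 0.25% DMSO final.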

[1] = second compound 1 µM, first compound 0.00949 µM
[2] = second compound 1 µM, first compound 0.03 µM
[3] = second compound 1 µM, first compound 0.0949 µM
[4] = second compound 1 µM, first compound 0.3 µM
[5] = second compound 1 µM, first compound 0.949 µM
[6] = second compound 1 µM, first compound 3 µM
[7] = second compound 3.16 µM, first compound 0.00949 µM
[8] = second compound 3.16 µM, first compound 0.03 µM
[9] = second compound 3.16 µM, first compound 0.0949 µM
[10] = second compound 3.16 µM, first compound 0.3 µM
[11] = second compound 3.16 µM, first compound 0.949 µM
[12] = second compound 3.16 µM, first compound 3 µM
[13] = second compound 10 µM, first compound 0.00949 µM
[14] = second compound 10 µM, first compound 0.03 µM
[15] = second compound 10 µM, first compound 0.0949 µM
[16] = second compound 10 µM, first compound 0.3 µM
[17] = second compound 10 µM, first compound 0.949 µM
[18] = second compound 10 µM, first compound 3 µM
[19] = second compound 31.6 µM, first compound 0.00949 µM
[20] = second compound 31.6 µM, first compound 0.03 µM
[21] = second compound 31.6 µM, first compound 0.0949 µM
[22] = second compound 31.6 µM, first compound 0.3 µM
[23] = second compound 31.6 µM, first compound 0.949 µM
[24] = second compound 31.6 µM, first compound 3 µM
[25] = second compound 100 µM, first compound 0.00949 µM
[26] = second compound 100 µM, first compound 0.03 µM
[27] = second compound 100 µM, first compound 0.0949 µM
[28] = second compound 100 µM, first compound 0.3 µM
[29] = second compound 100 µM, first compound 0.949 µM
[30] = second compound 100 µM, first compound 3 µM

## CNCc1ccc(-c2cc(-c3nc(-c4ccc(S(=O)(=O)C(C)C)cc4)cnc3N)on2)cc1 + Cn1nnc2c(C(N)=O)ncn2c1=O
Second compound 1 µM
  IC50: 63 nM
Second compound 3.16 µM
  IC50: 63.5 nM
Second compound 10 µM
  IC50: 177 nM
Second compound 31.6 µM
  IC50: 88 nM
Second compound 100 µM
  IC50: 49.8 nM
[1]
  viability, T/C: 96.3%
[2]
  viability, T/C: 94.5%
[3]
  viability, T/C: 25.5%
[4]
  viability, T/C: 33.9%
[5]
  viability, T/C: 4.57%
[6]
  viability, T/C: 1.05%
[7]
  viability, T/C: 97.7%
[8]
  viability, T/C: 74.5%
[9]
  viability, T/C: 33%
[10]
  viability, T/C: 21.8%
[11]
  viability, T/C: 3.41%
[12]
  viability, T/C: 0.87%
[13]
  viability, T/C: 101%
[14]
  viability, T/C: 99.2%
[15]
  viability, T/C: 89.8%
[16]
  viability, T/C: 16.2%
[17]
  viability, T/C: 2.29%
[18]
  viability, T/C: 5.12%
[19]
  viability, T/C: 97.5%
[20]
  viability, T/C: 96.3%
[21]
  viability, T/C: 45%
[22]
  viability, T/C: 17.2%
[23]
  viability, T/C: 1.91%
[24]
  viability, T/C: 7.45%
[25]
  viability, T/C: 92.9%
[26]
  viability, T/C: 48%
[27]
  viability, T/C: 58.3%
[28]
  viability, T/C: 5.09%
[29]
  viability, T/C: 8.18%
[30]
  viability, T/C: 0.32%

## Cc1cc(C)c(CNC(=O)c2cc(-c3ccc(CN4CCOCC4)cc3)cc3c2cnn3C2CCCC2)c(=O)[nH]1 + Cn1nnc2c(C(N)=O)ncn2c1=O
Second compound 1 µM
  IC50: 7500 nM
Second compound 3.16 µM
  IC50: > 10000 nM
Second compound 10 µM
  IC50: > 10000 nM
Second compound 31.6 µM
  IC50: 9720 nM
Second compound 100 µM
  IC50: 7700 nM
Second compound 1 µM, first compound 0.0316 µM
  viability, T/C: 101%
Second compound 1 µM, first compound 0.1 µM
  viability, T/C: 102%
Second compound 1 µM, first compound 0.316 µM
  viability, T/C: 97.2%
Second compound 1 µM, first compound 1 µM
  viability, T/C: 94.6%
Second compound 1 µM, first compound 3.16 µM
  viability, T/C: 78.9%
Second compound 1 µM, first compound 10 µM
  viability, T/C: 40.1%
Second compound 3.16 µM, first compound 0.0316 µM
  viability, T/C: 101%
Second compound 3.16 µM, first compound 0.1 µM
  viability, T/C: 105%
Second compound 3.16 µM, first compound 0.316 µM
  viability, T/C: 102%
Second compound 3.16 µM, first compound 1 µM
  viability, T/C: 97.4%
Second compound 3.16 µM, first compound 3.16 µM
  viability, T/C: 85.2%
Second compound 3.16 µM, first compound 10 µM
  viability, T/C: 56.3%
Second compound 10 µM, first compound 0.0316 µM
  viability, T/C: 103%
Second compound 10 µM, first compound 0.1 µM
  viability, T/C: 108%
Second compound 10 µM, first compound 0.316 µM
  viability, T/C: 105%
Second compound 10 µM, first compound 1 µM
  viability, T/C: 94.9%
Second compound 10 µM, first compound 3.16 µM
  viability, T/C: 87.2%
Second compound 10 µM, first compound 10 µM
  viability, T/C: 52.5%
Second compound 31.6 µM, first compound 0.0316 µM
  outcome: inactive
Second compound 31.6 µM, first compound 0.1 µM
  viability, T/C: 101%
Second compound 31.6 µM, first compound 0.316 µM
  viability, T/C: 97.6%
Second compound 31.6 µM, first compound 1 µM
  viability, T/C: 103%
Second compound 31.6 µM, first compound 3.16 µM
  viability, T/C: 83%
Second compound 31.6 µM, first compound 10 µM
  viability, T/C: 49.2%
Second compound 100 µM, first compound 0.0316 µM
  viability, T/C: 98.3%
Second compound 100 µM, first compound 0.1 µM
  viability, T/C: 99.2%
Second compound 100 µM, first compound 0.316 µM
  viability, T/C: 95.8%
Second compound 100 µM, first compound 1 µM
  viability, T/C: 97.6%
Second compound 100 µM, first compound 3.16 µM
  viability, T/C: 77.6%
Second compound 100 µM, first compound 10 µM
  viability, T/C: 41.7%

## Cc1sc2c(c1C)C(c1ccc(Cl)cc1)=NC(CC(=O)Nc1ccc(O)cc1)c1nnc(C)n1-2 (stereo not given) + Cn1nnc2c(C(N)=O)ncn2c1=O
Second compound 1 µM
  IC50: 375 nM
Second compound 3.16 µM
  IC50: 409 nM
Second compound 10 µM
  IC50: 384 nM
Second compound 31.6 µM
  IC50: 361 nM
Second compound 100 µM
  IC50: 267 nM
[1]
  viability, T/C: 98.5%
[2]
  viability, T/C: 101%
[3]
  viability, T/C: 74.8%
[4]
  viability, T/C: 59.8%
[5]
  viability, T/C: 24.3%
[6]
  viability, T/C: 6.54%
[7]
  viability, T/C: 105%
[8]
  viability, T/C: 98%
[9]
  viability, T/C: 88.9%
[10]
  viability, T/C: 59.1%
[11]
  viability, T/C: 24.7%
[12]
  viability, T/C: 5.5%
[13]
  viability, T/C: 102%
[14]
  outcome: inactive
[15]
  viability, T/C: 87.8%
[16]
  viability, T/C: 61.5%
[17]
  viability, T/C: 14.4%
[18]
  viability, T/C: 4.47%
[19]
  viability, T/C: 102%
[20]
  viability, T/C: 98.2%
[21]
  outcome: inactive
[22]
  viability, T/C: 57.3%
[23]
  viability, T/C: 12.6%
[24]
  viability, T/C: 2.27%
[25]
  viability, T/C: 101%
[26]
  viability, T/C: 99.8%
[27]
  viability, T/C: 82.6%
[28]
  viability, T/C: 49%
[29]
  viability, T/C: 5.34%
[30]
  viability, T/C: 1.69%

## Cn1ncnc1[C@H]1c2n[nH]c(=O)c3cc(F)cc(c23)N[C@@H]1c1ccc(F)cc1 + Cn1nnc2c(C(N)=O)ncn2c1=O
Second compound 1 µM
  IC50: 369 nM
Second compound 3.16 µM
  IC50: 18.6 nM
Second compound 10 µM
  IC50: < 9.49 nM
Second compound 31.6 µM
  IC50: < 9.49 nM
Second compound 100 µM
  IC50: < 9.49 nM
[1]
  viability, T/C: 89.2%
[2]
  viability, T/C: 86.4%
[3]
  viability, T/C: 78.1%
[4]
  viability, T/C: 60.3%
[5]
  viability, T/C: 4.54%
[6]
  viability, T/C: 2.08%
[7]
  viability, T/C: 90.5%
[8]
  viability, T/C: 9.92%
[9]
  viability, T/C: 42.8%
[10]
  viability, T/C: 42.2%
[11]
  viability, T/C: 6.61%
[12]
  viability, T/C: 5.73%
[13]
  viability, T/C: 25.7%
[14]
  viability, T/C: 54.8%
[15]
  viability, T/C: 9.14%
[16]
  viability, T/C: 11.2%
[17]
  viability, T/C: 6.05%
[18]
  viability, T/C: 2.46%
[19]
  viability, T/C: 13.9%
[20]
  viability, T/C: 6.84%
[21]
  viability, T/C: 3.57%
[22]
  viability, T/C: 2.41%
[23]
  viability, T/C: 2.88%
[24]
  viability, T/C: 3.21%
[25]
  viability, T/C: 3.08%
[26]
  viability, T/C: 2.93%
[27]
  viability, T/C: 3.16%
[28]
  viability, T/C: 3.31%
[29]
  viability, T/C: 8.92%
[30]
  viability, T/C: 3.58%

## O=C(c1cc(Cc2n[nH]c(=O)c3ccccc23)ccc1F)N1CCN(C(=O)C2CC2)CC1 + Cn1nnc2c(C(N)=O)ncn2c1=O
Second compound 1 µM
  IC50: 5820 nM
Second compound 3.16 µM
  IC50: 4960 nM
Second compound 10 µM
  IC50: 131 nM
Second compound 31.6 µM
  IC50: 490 nM
Second compound 100 µM
  IC50: < 94.9 nM
[3]
  viability, T/C: 96.6%
[4]
  viability, T/C: 99.7%
[5]
  viability, T/C: 87.6%
[6]
  outcome: inactive
Second compound 1 µM, first compound 9.49 µM
  viability, T/C: 36.1%
Second compound 1 µM, first compound 30 µM
  viability, T/C: 7.71%
[9]
  viability, T/C: 104%
[10]
  viability, T/C: 99.6%
[11]
  viability, T/C: 95.3%
[12]
  viability, T/C: 77.5%
Second compound 3.16 µM, first compound 9.49 µM
  viability, T/C: 14.7%
Second compound 3.16 µM, first compound 30 µM
  viability, T/C: 7.81%
[15]
  outcome: inactive
[16]
  outcome: inactive
[17]
  viability, T/C: 45.5%
[18]
  viability, T/C: 9.01%
Second compound 10 µM, first compound 9.49 µM
  viability, T/C: 6.29%
Second compound 10 µM, first compound 30 µM
  viability, T/C: 3.58%
[21]
  viability, T/C: 90.2%
[22]
  viability, T/C: 83.1%
[23]
  viability, T/C: 4.8%
[24]
  viability, T/C: 9.51%
Second compound 31.6 µM, first compound 9.49 µM
  viability, T/C: 3.15%
Second compound 31.6 µM, first compound 30 µM
  viability, T/C: 4.15%
[27]
  viability, T/C: 17.8%
[28]
  viability, T/C: 15%
[29]
  viability, T/C: 4.23%
[30]
  viability, T/C: 5.1%
Second compound 100 µM, first compound 9.49 µM
  viability, T/C: 3.82%
Second compound 100 µM, first compound 30 µM
  viability, T/C: 5.19%
